Assay results published in patent US20100321430A1, “INK COMPOSITION FOR INK JET RECORDING” (priority 2009, published 2010).

Test: Solubility of 1,2-octanediol in aqueous solution containing an alcohol solvent
Format: physicochemical
Conditions: for ability to dissolve 1,2-octanediol compared with HED: aqueous solution containing 10% by weight 1,2-octanediol and 10% by weight 1,2-hexanediol, FIGURE
Protocol: An aqueous solution containing 10% by weight of 1,2-octanediol, which is a water-insoluble alkanediol, was prepared. […] Therefore, the aqueous solution was cloudy.
Five alcohol solvents were each added to 10 g of the aqueous solution until the aqueous solution became transparent. The five alcohol solvents were 1,6-hexanediol (hereinafter referred to as 1,6-HED), 3-methyl-1,5-pentanediol (hereinafter referred to as 3 MPED), 1,5-pentanediol (hereinafter referred to as 1,5-PED), 1,2-hexanediol (hereinafter referred to as HED), and 2,2′-dimethylpropanediol (hereinafter referred to as 2 MPRD).
Another aqueous solution containing 10% by weight of 1,2-octanediol and 10% by weight of 1,2-hexanediol, which is a water-soluble alkanediol, was prepared. The five alcohol solvents were added to this aqueous solution in the same manner as described above until this aqueous solution became transparent.

SMILES | solubility in water (aqueous solution containing 10% by weight) | ability to dissolve 1,2-octanediol compared with HED
CCCCCCC(O)CO (centres unmarked) [1,2-octanediol] | not completely dissolved | 
OCCCCCO [1,5-PED, 1,5-pentanediol] |  | more capable of dissolving 1,2-octanediol
OCCCCCCO [1,6-HED, 1,6-hexanediol] |  | more capable of dissolving 1,2-octanediol
CC(C)(CO)CO [2 MPRD, 2,2′-dimethylpropanediol] |  | more capable of dissolving 1,2-octanediol
CC(CCO)CCO [3 MPED, 3-methyl-1,5-pentanediol] |  | more capable of dissolving 1,2-octanediol
